Where a name gives a salt, the structure may show the parent alone.
Biological target: T1, human recombinant 6His-Nterm SHP2 full-length (Thr2-Arg593) (Homo sapiens, UniProt Q06124)
T1 construct: 6His-Nterm SHP2 full-length (Thr2-Arg593, R&D system); 6His (N); purchased R&D system
T1 sequence (Q06124 2-593): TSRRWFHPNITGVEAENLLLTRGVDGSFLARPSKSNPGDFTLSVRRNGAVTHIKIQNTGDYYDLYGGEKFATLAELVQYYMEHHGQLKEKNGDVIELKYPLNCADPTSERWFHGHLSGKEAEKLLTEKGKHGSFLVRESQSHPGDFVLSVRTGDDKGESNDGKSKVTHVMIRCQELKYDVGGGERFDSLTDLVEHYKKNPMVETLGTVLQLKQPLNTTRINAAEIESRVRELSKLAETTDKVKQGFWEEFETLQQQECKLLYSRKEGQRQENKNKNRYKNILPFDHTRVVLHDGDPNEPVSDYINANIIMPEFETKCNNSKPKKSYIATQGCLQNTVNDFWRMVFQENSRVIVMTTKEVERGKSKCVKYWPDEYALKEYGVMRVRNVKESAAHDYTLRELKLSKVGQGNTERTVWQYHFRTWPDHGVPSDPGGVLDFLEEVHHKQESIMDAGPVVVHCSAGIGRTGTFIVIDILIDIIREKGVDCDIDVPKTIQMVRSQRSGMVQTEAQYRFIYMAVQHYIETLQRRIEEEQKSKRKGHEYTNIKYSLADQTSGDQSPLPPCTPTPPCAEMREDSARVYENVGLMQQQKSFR
Experiment: SHP2 Phosphatase Assay (DiFMUP fluorescence)
Type: biochemical
Conditions: SHP2 0.2 nM pre-incubated with 100 nM bi-phosphorylated activating peptide; compound 1000-0.05 nM, 30 min pre-incubation; DiFMUP 20 µM, 45 min, room temperature; 10-concentration dose-response
Procedure, shortened: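 SHP2 (0.2 nM) preactivated ≥10 min with 100 nM bis-phosphorylated peptide, then 30 min with compound (10 concentrations, 1000–0.05 nM) at room temperature, pH 7.2 HEPES buffer with DTT. DiFMUP (20 µM, added solution) reacted 45 min, pervanadate-stopped; fluorescence 350/450 nm. IC50 by 4-parameter logistic fit.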

Row | SMILES | IC50 [nM]
1 | Cc1nc(N2CCC3(CC2)Cc2ncccc2[C@H]3N)c2ccnn2c1-c1cccc(F)c1Cl [Compound 2, (5S)-1'-(7-(2-chloro-3-fluorophenyl)-6-methylpyrazolo[1,5-a]pyrazin-4-yl)-5,7-dihydrospiro[cyclopenta[b]pyridine-6,4'-piperidin]-5-amine] | 6
2 | Cc1nc(N2CCC3(CC2)Cc2ncccc2[C@H]3N)c2ccnn2c1-c1ccsc1Cl [Compound 54, (5S)-1'-[7-(2-chloro-3-thienyl)-6-methyl-pyrazolo[1,5-a]pyrazin-4-yl]spiro[5,7-dihydrocyclopenta[b]pyridine-6,4'-piperidine]-5-amine] | 4
3 | Cc1nc(N2CCC3(CC2)Oc2ncccc2[C@H]3N)c2ccnn2c1-c1cccc(Cl)c1Cl [Compound 17, (3R)-1'-[7-(2,3-dichlorophenyl)-6-methyl-pyrazolo[1,5-a]pyrazin-4-yl]spiro[3H-furo[2,3-b]pyridine-2,4'-piperidine]-3-amine] | 39
4 | COc1cnc2c(c1)[C@@H](N)C1(CCN(c3nc(C)c(-c4ccnc(C)c4Cl)n4nccc34)CC1)C2 [Compound 23, (5S)-1'-[7-(3-chloro-2-methyl-4-pyridyl)-6-methyl-pyrazolo[1,5-a]pyrazin-4-yl]-3-methoxy-spiro[5,7-dihydrocyclopenta[b]pyridine-6,4'-piperidine]-5-amine] | 10
5 | Cc1nc(N2CCC3(CC2)Cc2ncccc2[C@H]3N)c2ccnn2c1-c1ccnc(C2CC2)c1Cl [Compound 40, (5S)-1'-[7-(3-chloro-2-cyclopropyl-4-pyridyl)-6-methyl-pyrazolo[1,5-a]pyrazin-4-yl]spiro[5,7-dihydrocyclopenta[b]pyridine-6,4'-piperidine]-5-amine] | 10
6 | Cc1nccc(-c2c(C)nc(N3CCC4(CC3)Cc3ncccc3[C@H]4N)c3c(F)cnn23)c1Cl [Compound 144, (5S)-1'-[7-(3-chloro-2-methyl-4-pyridyl)-3-fluoro-6-methyl-pyrazolo[1,5-a]pyrazin-4-yl]spiro[5,7-dihydrocyclopenta[b]pyridine-6,4'-piperidine]-5-amine hydrochloride] | 17
7 | COc1ccc2c(c1)[C@@H](N)C1(CCN(c3nc(C)c(-c4ccccc4F)n4nccc34)CC1)C2 [Compound 11, (1S)-1'-[7-(2-fluorophenyl)-6-methyl-pyrazolo[1,5-a]pyrazin-4yl]-6-methoxy-spiro[indane-2,4'-piperidine]-1-amine hydrochloride] | 23
8 | Cc1nc(N2CCC3(CC2)Cc2ncccc2[C@H]3N)c2ccnn2c1-c1ccc2ncccc2c1F [Compound 30, (5S)-1'-[7-(5-fluoro-6-quinolyl)-6-methyl-pyrazolo [1 ,5-a]pyrazin-4-yl]spiro[5,7-dihydrocyclopenta[b]pyridine-6,4'-piperidine] -5-amine formate] | 17
9 | Cc1ccc2c(n1)CC1(CCN(c3nc(C)c(-c4ccccc4F)n4nccc34)CC1)[C@@H]2N [Compound 106, (5S)-1'-[7-(2-fluorophenyl)-6-methyl-pyrazolo[1,5-a]pyrazin-4-yl]-2-methyl-spiro[5,7-dihydrocyclopenta[b]pyridine-6,4'-piperidine]-5-amine hydrochloride] | 14
10 | Cc1cc(-c2c(C)nc(N3CCC4(CC3)Cc3ncccc3[C@H]4N)c3ccnn23)n(C)n1 [Compound 44, (5S)-1'-[7-(2,5-dimethylpyrazol-3-yl)-6-methyl-pyrazolo[1,5-a]pyrazin-4-yl]spiro[5,7-dihydrocyclopenta[b]pyridine-6,4'-piperidine]-5-amine] | 15
11 | Cc1nc2c(s1)[C@@H](N)C1(CCN(c3nc(C)c(-c4ccnc(C)c4Cl)n4nccc34)CC1)C2 [Compound 84, (6S)-1'-[7-(3-chloro-2-methyl-4-pyridyl)-6-methyl-pyrazolo[1,5-a]pyrazin-4-yl]-2-methyl-spiro[4,6-dihydrocyclopenta[d]thiazole-5,4'-piperidine]-6-amine hydrochloride] | 5

The remaining lines, values ahead:

Row | IC50 [nM] | SMILES
12 | 250 | Cc1nc(N2CCC3(CC2)Cc2ncccc2[C@H]3N)c2ccnn2c1-c1cc(C(F)(F)F)ccc1F [Compound 187, (5S)-1'-[7-[2-fluoro-5-(trifluoromethyl)phenyl] -6-methyl-pyrazolo[1,5-a]pyrazin-4-yl]spiro[5,7-dihydrocyclopenta[b]pyridine-6,4'-piperidine]-5-amine]
13 | 30 | Cc1nc(N2CCC3(CC2)Cc2ncc(C(F)F)cc2[C@H]3N)c2ccnn2c1-c1cnn(C)c1C [Compound 55, (5S)-3-(difluoromethyl)-1'-[7-(1,5-dimethylpyrazol-4-yl)-6-methyl-pyrazolo[1,5-a]pyrazin-4-yl]spiro [5,7-dihydrocyclopenta[b]pyridine-6,4'-piperidine]-5-amine]
14 | 594 | COc1ccc2c(n1)[C@H](N)C1(CCN(c3nc(C)c(-c4cccc(F)c4F)n4nccc34)CC1)C2 [Compound 214, (7R)-1'-[7-(2,3-difluorophenyl)-6-methyl-pyrazolo [1,5-a]pyrazin-4-yl]-2-methoxy-spiro[5,7-dihydrocyclopenta[b]pyridine-6,4'-piperidine]-7-amine]
15 | 8 | Cc1nccc(-c2c(C)nc(N3CCC4(CC3)Cc3cc(F)ccc3[C@H]4N)c3ccnn23)c1Cl [Compound 217, (1S)-1'-[7-(3-Chloro-2-methyl-4-pyridyl)-6-methyl-pyrazolo[1,5-a]pyrazin-4-yl]-5-fluoro-spiro[indane-2,4'-piperidine]-1-amine formate]
16 | 4 | Cc1nc(N2CCC3(CC2)Cc2ncccc2[C@H]3N)c2ccnn2c1-c1ccc(CC#N)cc1 [Compound 189, 2-[4-[6-methyl-4-[(5S)-5-aminospiro[5,7-dihydrocyclopenta[b]pyridine-6,4'-piperidine]-1'-yl]pyrazolo[1,5-a]pyrazin-7-yl]phenyl]acetonitrile]
17 | 3 | Cc1nc(N2CCC3(CC2)Cc2ncccc2[C@H]3N)c2ccnn2c1-c1ccc2c(c1)OCCO2 [Compound 183, (5S)-1'-[7-(2,3-dihydro-1,4-benzodioxin-6-yl)-6-methyl-pyrazolo[1,5-a]pyrazin-4-yl]spiro[5,7-dihydrocyclopenta[b]pyridine-6,4'-piperidine]-5-amine]
18 | 9 | Cc1nccc(-c2c(C)nc(N3CCC4(CC3)Cc3ccccc3[C@H]4N)c3ccnn23)c1F [Compound 151, (1S)-1'-[7-(3-fluoro-2-methyl-4-pyridyl)-6-methyl-pyrazolo [1 ,5-a]pyrazin-4-yl]spiro[indane-2,4'-piperidine]-1-amine]
19 | 22 | COc1ccc2c(n1)[C@@H](N)C1(CCN(c3nc(C)c(-c4cccc(F)c4F)n4nccc34)CC1)C2 [Compound 213, (7S)-1'-[7-(2,3-difluorophenyl)-6-methyl-pyrazolo[1,5-a]pyrazin-4-yl]-2-methoxy-spiro[5,7-dihydrocyclopenta[b]pyridine-6,4'-piperidine]-7-amine]
20 | 15 | COc1ccc(Cl)c(-c2c(C)nc(N3CCC4(CC3)Cc3ncccc3[C@H]4N)c3ccnn23)c1 [Compound 173, (5S)-1'-[7-(2-chloro-5-methoxy-phenyl)-6-methyl-pyrazolo[1,5-a]pyrazin-4-yl]spiro[5,7-dihydrocyclopenta[b]pyridine-6,4'-piperidine]-5-amine]
21 | 288 | Cc1nc(N2CCC3(CC2)Cc2ccc(C#N)cc2[C@@H]3N)c2ccnn2c1-c1cnn(C)c1C (single isomer, unassigned) [Compound 212]
